One test concerns the target Human factor Xa (Homo sapiens, UniProt P00742). The test is described as follows: Xa Assay. Type of test: biochemical. Set-up: purchased Enzyme Research Laboratories, South Bend Ind. The settings on record: for % Inhibition Factor Xa (30 µM): at 30 µM; for % Inhibition Factor Xa (100 µM): inhibitor at 100 µM.
The target in test [1] is T1, recombinant soluble tissue factor and recombinant human factor VIIa (TF-VIIa) (Homo sapiens, UniProt P08709).
T1 construct: conversion of coagulation factor VII to VIIa by Xa; purchased American Diagnostica, Greenwich Conn; host or cells: VIIa purchased; soluble TF made in house in E. coli
T1 sequence (P08709 61-212 limits assumed): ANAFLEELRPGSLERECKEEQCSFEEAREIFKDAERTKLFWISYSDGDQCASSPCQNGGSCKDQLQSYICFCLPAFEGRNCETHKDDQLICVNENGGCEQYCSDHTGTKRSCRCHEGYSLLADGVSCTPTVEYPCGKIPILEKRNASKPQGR
T1 sequence (P08709 213-466 limits assumed): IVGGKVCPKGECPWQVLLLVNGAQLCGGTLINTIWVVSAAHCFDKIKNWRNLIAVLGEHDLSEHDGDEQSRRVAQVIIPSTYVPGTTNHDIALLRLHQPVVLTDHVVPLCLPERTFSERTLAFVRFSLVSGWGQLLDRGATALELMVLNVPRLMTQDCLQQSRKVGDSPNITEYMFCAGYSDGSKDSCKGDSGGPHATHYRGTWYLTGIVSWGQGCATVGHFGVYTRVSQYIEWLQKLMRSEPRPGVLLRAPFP
T1 sequence (P13726 33-251 partner limits assumed): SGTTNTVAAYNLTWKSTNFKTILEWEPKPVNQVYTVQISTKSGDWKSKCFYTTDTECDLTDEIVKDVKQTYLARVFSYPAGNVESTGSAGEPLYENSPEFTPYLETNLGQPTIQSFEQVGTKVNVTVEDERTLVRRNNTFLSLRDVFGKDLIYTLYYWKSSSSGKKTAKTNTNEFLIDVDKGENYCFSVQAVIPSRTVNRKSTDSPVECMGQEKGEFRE
The test is described as follows: TF-VIIa Assay. As to conditions: for % Inhibition TF-VIIa (30 µM): at 30 µM; for % Inhibition TF-VIIa (100 µM): inhibitor at 100 µM. In kind it is biochemical.

SMILES strings stand for the structures.

Sequence of Human factor Xa (P00742 41-179 limits assumed): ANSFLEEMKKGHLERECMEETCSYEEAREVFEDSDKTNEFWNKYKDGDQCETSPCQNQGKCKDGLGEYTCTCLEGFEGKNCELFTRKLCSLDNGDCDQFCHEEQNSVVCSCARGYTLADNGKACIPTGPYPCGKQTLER
Sequence of Human factor Xa (P00742 235-488 limits assumed): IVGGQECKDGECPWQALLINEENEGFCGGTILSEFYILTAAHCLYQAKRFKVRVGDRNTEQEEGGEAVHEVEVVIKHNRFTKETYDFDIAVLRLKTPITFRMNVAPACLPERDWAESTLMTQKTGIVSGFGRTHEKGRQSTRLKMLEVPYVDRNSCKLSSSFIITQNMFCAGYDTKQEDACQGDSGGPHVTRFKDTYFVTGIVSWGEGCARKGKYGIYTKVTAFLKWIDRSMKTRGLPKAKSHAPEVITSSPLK

On to `N=C(N)c1ccc(CNC(=O)C(Cc2ccccc2)n2c(-c3ccccc3)c(Cl)nc(NCCc3cccc(Cl)c3)c2=O)cc1` (stereo not shown) [Example 1517-20], for which, on Human factor Xa, the “% Inhibition Factor Xa (30 µM)” value is given as 0%. Also, the “% Inhibition TF-VIIa (30 µM)” value in test [1] is given as 22%.

On to `CCCCNc1nc(Cl)c(-c2ccccc2)n(CC(=O)NCc2ccc(C(=N)N)cc2)c1=O` [Example 1517-35], for which, at Human factor Xa, the “% Inhibition Factor Xa (30 µM)” value is recorded as 0%. Also, in test [1], the “% Inhibition TF-VIIa (30 µM)” value is reported as 33%.

As to `N=C(N)c1ccc(CNC(=O)Cn2c(-c3ccccc3)c(Cl)nc(NCC3CC3)c2=O)cc1` [Example 1517-43], the “% Inhibition Factor Xa (30 µM)” value at Human factor Xa is recorded as 0%. In test [1], the “% Inhibition TF-VIIa (30 µM)” value is 25%.

For the compound `Cc1c(Cl)nc(NCc2ccccc2)c(=O)n1CC(=O)NCCc1ccncc1` [Example E-0001], the “% Inhibition Factor Xa (100 µM)” value on Human factor Xa was found to be 1%. In addition, in test [1], the “% Inhibition TF-VIIa (100 µM)” value amounted to 0%.

For the compound `Cc1c(Cl)nc(NCCc2ccccc2)c(=O)n1CC(=O)NCCc1ccncc1` [Example E-0002], at Human factor Xa, the “% Inhibition Factor Xa (100 µM)” value is recorded as 0%. For the same compound, the “% Inhibition TF-VIIa (100 µM)” value in test [1] came to 0%.

`Cc1c(Cl)nc(NCCc2cccc(Cl)c2)c(=O)n1CC(=O)NCCc1ccncc1` [Example E-0003]: the “% Inhibition Factor Xa (100 µM)” value on Human factor Xa came to 0%. Besides, the “% Inhibition TF-VIIa (100 µM)” value in test [1] is recorded as 0%.

As to `Cc1c(Cl)nc(NCCc2ccc(Cl)cc2)c(=O)n1CC(=O)NCCc1ccncc1` [Example E-0004], the “% Inhibition Factor Xa (100 µM)” value at Human factor Xa was 0%. The “% Inhibition TF-VIIa (100 µM)” value in test [1] was determined as 0%.

As to `Cc1c(Cl)nc(NCCc2cccnc2)c(=O)n1CC(=O)NCCc1ccncc1` [Example E-0005], the “% Inhibition Factor Xa (100 µM)” value at Human factor Xa was 0%. Moreover, the “% Inhibition TF-VIIa (100 µM)” value in test [1] worked out at 0%.

For the compound `Cc1c(Cl)nc(NCCc2ccncc2)c(=O)n1CC(=O)NCCc1ccncc1` [Example E-0006], the “% Inhibition Factor Xa (100 µM)” value at Human factor Xa turned out to be 0%. For the same compound, the “% Inhibition TF-VIIa (100 µM)” value in test [1] is on record as 2%.

Regarding `Cc1c(Cl)nc(NCCN2CCOCC2)c(=O)n1CC(=O)NCCc1ccncc1` [Example E-0007], the “% Inhibition Factor Xa (100 µM)” value at Human factor Xa was determined as 0%. In test [1], the “% Inhibition TF-VIIa (100 µM)” value came to 0%.

With `Cc1c(Cl)nc(NCc2ccncc2)c(=O)n1CC(=O)NCCc1ccncc1` [Example E-0008], the “% Inhibition Factor Xa (100 µM)” value at Human factor Xa is 0%. Further, in test [1], the “% Inhibition TF-VIIa (100 µM)” value is listed as 0%.

As to `O=C(Cn1c(-c2ccccc2)c(Cl)nc(NCc2ccccc2)c1=O)NCCc1ccncc1` [Example E-0009], at Human factor Xa, the “% Inhibition Factor Xa (100 µM)” value is on record as 1%. The “% Inhibition TF-VIIa (100 µM)” value in test [1] is listed as 0%.

Consider `O=C(Cn1c(-c2ccccc2)c(Cl)nc(NCCc2ccccc2)c1=O)NCCc1ccncc1` [Example E-0010], for which the “% Inhibition Factor Xa (100 µM)” value on Human factor Xa is 0%. In addition, in test [1], the “% Inhibition TF-VIIa (100 µM)” value turned out to be 0%.

On to `O=C(Cn1c(-c2ccccc2)c(Cl)nc(NCCc2cccc(Cl)c2)c1=O)NCCc1ccncc1` [Example E-0011], for which the “% Inhibition Factor Xa (100 µM)” value on Human factor Xa amounted to 0%. Besides, the “% Inhibition TF-VIIa (100 µM)” value in test [1] is on record as 0%.

`O=C(Cn1c(-c2ccccc2)c(Cl)nc(NCCc2ccc(Cl)cc2)c1=O)NCCc1ccncc1` [Example E-0012]: on Human factor Xa, the “% Inhibition Factor Xa (100 µM)” value was determined as 0%. Moreover, the “% Inhibition TF-VIIa (100 µM)” value in test [1] was 0%.

`O=C(Cn1c(-c2ccccc2)c(Cl)nc(NCCc2cccnc2)c1=O)NCCc1ccncc1` [Example E-0013]: on Human factor Xa, the “% Inhibition Factor Xa (100 µM)” value is on record as 0%. In test [1], the “% Inhibition TF-VIIa (100 µM)” value turned out to be 0%.

In the case of `O=C(Cn1c(-c2ccccc2)c(Cl)nc(NCCc2ccncc2)c1=O)NCCc1ccncc1` [Example E-0014], the “% Inhibition Factor Xa (100 µM)” value on Human factor Xa stood at 0%. For the same compound, the “% Inhibition TF-VIIa (100 µM)” value in test [1] was determined as 0%.

For `O=C(Cn1c(-c2ccccc2)c(Cl)nc(NCCN2CCOCC2)c1=O)NCCc1ccncc1` [Example E-0015], on Human factor Xa, the “% Inhibition Factor Xa (100 µM)” value turned out to be 0%. Besides, the “% Inhibition TF-VIIa (100 µM)” value in test [1] is recorded as 0%.

As to `O=C(Cn1c(-c2ccccc2)c(Cl)nc(NCc2ccncc2)c1=O)NCCc1ccncc1` [Example E-0016], the “% Inhibition Factor Xa (100 µM)” value on Human factor Xa was determined as 0%. In addition, the “% Inhibition TF-VIIa (100 µM)” value in test [1] came out at 0%.

As for `O=C(Cn1c(-c2ccc(Cl)cc2)c(Cl)nc(NCc2ccccc2)c1=O)NCCc1ccncc1` [Example E-0017], the “% Inhibition Factor Xa (100 µM)” value on Human factor Xa came to 0%. For the same compound, the “% Inhibition TF-VIIa (100 µM)” value in test [1] came out at 0%.

For `O=C(Cn1c(-c2ccc(Cl)cc2)c(Cl)nc(NCCc2ccccc2)c1=O)NCCc1ccncc1` [Example E-0018], on Human factor Xa, the “% Inhibition Factor Xa (100 µM)” value is 0%. Besides, the “% Inhibition TF-VIIa (100 µM)” value in test [1] turned out to be 1%.

Turning to `O=C(Cn1c(-c2ccc(Cl)cc2)c(Cl)nc(NCCc2cccc(Cl)c2)c1=O)NCCc1ccncc1` [Example E-0019], at Human factor Xa, the “% Inhibition Factor Xa (100 µM)” value stood at 0%. Further, the “% Inhibition TF-VIIa (100 µM)” value in test [1] amounted to 0%.

Turning to `O=C(Cn1c(-c2ccc(Cl)cc2)c(Cl)nc(NCCc2ccc(Cl)cc2)c1=O)NCCc1ccncc1` [Example E-0020], the “% Inhibition Factor Xa (100 µM)” value on Human factor Xa came out at 1%. Moreover, in test [1], the “% Inhibition TF-VIIa (100 µM)” value is listed as 0%.

As for `O=C(Cn1c(-c2ccc(Cl)cc2)c(Cl)nc(NCCc2cccnc2)c1=O)NCCc1ccncc1` [Example E-0021], the “% Inhibition Factor Xa (100 µM)” value at Human factor Xa turned out to be 1%. Further, the “% Inhibition TF-VIIa (100 µM)” value in test [1] is given as 0%.

Take `O=C(Cn1c(-c2ccc(Cl)cc2)c(Cl)nc(NCCc2ccncc2)c1=O)NCCc1ccncc1` [Example E-0022]: the “% Inhibition Factor Xa (100 µM)” value on Human factor Xa was 0%. Further, the “% Inhibition TF-VIIa (100 µM)” value in test [1] was 0%.

In the case of `O=C(Cn1c(-c2ccc(Cl)cc2)c(Cl)nc(NCCN2CCOCC2)c1=O)NCCc1ccncc1` [Example E-0023], at Human factor Xa, the “% Inhibition Factor Xa (100 µM)” value was found to be 0%. For the same compound, the “% Inhibition TF-VIIa (100 µM)” value in test [1] stood at 0%.

Regarding `O=C(Cn1c(-c2ccc(Cl)cc2)c(Cl)nc(NCc2ccncc2)c1=O)NCCc1ccncc1` [Example E-0024], the “% Inhibition Factor Xa (100 µM)” value at Human factor Xa turned out to be 0%. The “% Inhibition TF-VIIa (100 µM)” value in test [1] worked out at 0%.

Consider `O=C(Cn1c(-c2ccc(Cl)cc2)c(Cl)nc(NCc2ccccc2)c1=O)NCCc1ccncc1` [Example E-0025], for which, at Human factor Xa, the “% Inhibition Factor Xa (100 µM)” value turned out to be 0%. The “% Inhibition TF-VIIa (100 µM)” value in test [1] stood at 0%.

For the compound `O=C(Cn1c(-c2ccc(Cl)cc2)c(Cl)nc(NCCc2ccccc2)c1=O)NCCc1ccncc1` [Example E-0026], the “% Inhibition Factor Xa (100 µM)” value on Human factor Xa amounted to 0%. Also, the “% Inhibition TF-VIIa (100 µM)” value in test [1] was 0%.

For the compound `O=C(Cn1c(-c2ccc(Cl)cc2)c(Cl)nc(NCCc2ccc(Cl)cc2)c1=O)NCCc1ccncc1` [Example E-0028], the “% Inhibition Factor Xa (100 µM)” value at Human factor Xa came out at 0%. In addition, the “% Inhibition TF-VIIa (100 µM)” value in test [1] worked out at 0%.

Consider `O=C(Cn1c(-c2ccc(Cl)cc2)c(Cl)nc(NCCc2cccnc2)c1=O)NCCc1ccncc1` [Example E-0029], for which, on Human factor Xa, the “% Inhibition Factor Xa (100 µM)” value is listed as 0%. The “% Inhibition TF-VIIa (100 µM)” value in test [1] was 0%.

Consider `O=C(Cn1c(-c2ccc(Cl)cc2)c(Cl)nc(NCCc2ccncc2)c1=O)NCCc1ccncc1` [Example E-0030], for which the “% Inhibition Factor Xa (100 µM)” value on Human factor Xa is given as 0%. Besides, in test [1], the “% Inhibition TF-VIIa (100 µM)” value is listed as 0%.

For the compound `O=C(Cn1c(-c2ccc(Cl)cc2)c(Cl)nc(NCc2ccncc2)c1=O)NCCc1ccncc1` [Example E-0032], the “% Inhibition Factor Xa (100 µM)” value on Human factor Xa came to 0%. For the same compound, the “% Inhibition TF-VIIa (100 µM)” value in test [1] is 0%.

Regarding `COc1ccc(-c2c(Cl)nc(NCc3ccccc3)c(=O)n2CC(=O)NCCc2ccncc2)cc1` [Example E-0033], at Human factor Xa, the “% Inhibition Factor Xa (100 µM)” value amounted to 0%. For the same compound, the “% Inhibition TF-VIIa (100 µM)” value in test [1] stood at 0%.

Regarding `COc1ccc(-c2c(Cl)nc(NCCc3ccccc3)c(=O)n2CC(=O)NCCc2ccncc2)cc1` [Example E-0034], the “% Inhibition Factor Xa (100 µM)” value on Human factor Xa was 6%. In addition, the “% Inhibition TF-VIIa (100 µM)” value in test [1] was found to be 0%.

(Values after patent publication US6908919B2, “Substituted polycyclic aryl and heteroaryl pyrazinones useful for selective inhibition of the coagulation cascade” (Pharmacia Corporation, priority 1999, dated 2005).)
